The record followed here is PubChem BioAssay (NCI).

Among the test systems are COLO 205 colon; HOP-62 NSCLC; HOP-92 NSCLC; LOX IMVI melanoma; MALME-3M melanoma; MDA-N; NCI-H23 lung; NCI/ADR-RES ovarian; OVCAR-3 ovarian; PC-3 prostate; RPMI-8226 leukemia; RXF 393 renal; SF-268 CNS; SF-539 CNS; SK-MEL-2 melanoma; TK-10 renal; U251 CNS; UO-31 renal; HS 578T breast.
What all share (assay): NCI anticancer screen, dose series, 48 h

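How tested: cells in 96-well plates exposed to compound for 48 hours at five concentrations. TGI: total growth inhibition.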

As to `CCCCC1Cc2cc(OC)ccc2-c2n1c1cc(OC)ccc1[n+]2C` (centres undefined) (tested in a mixture with another compound), the TGI in the assay on COLO 205 colon is 1.69 µM; with HOP-62 NSCLC, over 61.7 µM; in the assay on HOP-92 NSCLC it was 7.02 µM; with LOX IMVI melanoma, 14.3 µM; with MALME-3M melanoma, 9.71 µM; with MDA-N, 11.1 µM. Further, the TGI was over 39.9 µM in the assay with NCI-H23 lung; over 100 µM in the assay with NCI/ADR-RES ovarian; over 72.1 µM with OVCAR-3 ovarian; 30.4 µM with PC-3 prostate; 2.17 µM in the assay with RPMI-8226 leukemia; 45.8 µM in the assay on RXF 393 renal. The TGI in the assay on SF-268 CNS was 6.09 µM; with SF-539 CNS, over 44.9 µM; in the assay on SK-MEL-2 melanoma it was 13 µM; in the assay with TK-10 renal it was 31.9 µM; in the assay on U251 CNS, over 26.5 µM; with UO-31 renal, 30.9 µM.
Consider `C/C(=N\Nc1nc2ccccc2n1C)c1ccc2ccccc2n1`, for which the TGI in the assay with COLO 205 colon is over 100 µM; with HOP-62 NSCLC it was 18.2 µM; in the assay with HOP-92 NSCLC, 37.8 µM; with HS 578T breast it was 63.8 µM; in the assay with LOX IMVI melanoma, 16.6 µM; with MALME-3M melanoma it was 16.3 µM. Moreover, the TGI in the assay with MDA-N is 37.7 µM; with NCI-H23 lung, 31 µM; in the assay on NCI/ADR-RES ovarian it was 6.71 µM; with OVCAR-3 ovarian it was 0.213 µM; in the assay on RXF 393 renal it was 29.3 µM; in the assay with SF-268 CNS it was 19.2 µM. In addition, the TGI in the assay on SF-539 CNS was over 34.3 µM; in the assay on SK-MEL-2 melanoma it was over 36 µM; in the assay on TK-10 renal, 34 µM; in the assay with U251 CNS it was over 43.6 µM; with UO-31 renal, 11.8 µM.
As to `CC(=O)c1sc2c(c1O)c(=O)n(-c1ccccc1)c(=S)n2-c1ccccc1`, the TGI in the assay on COLO 205 colon, in the assay on HOP-92 NSCLC, in the assay with HS 578T breast, in the assay with LOX IMVI melanoma, in the assay on MALME-3M melanoma and in the assay with MDA-N was over 100 µM each time. The TGI with NCI-H23 lung, in the assay on OVCAR-3 ovarian, with RPMI-8226 leukemia, in the assay with RXF 393 renal, in the assay with SF-268 CNS and in the assay on SK-MEL-2 melanoma was over 100 µM each time. In addition, the TGI in the assay with TK-10 renal, in the assay with U251 CNS and in the assay with UO-31 renal was over 100 µM throughout.
`Cc1ccc(C=C(C(=O)O)C(=O)O)o1`: the TGI with COLO 205 colon, in the assay with HOP-62 NSCLC, in the assay on HS 578T breast, with LOX IMVI melanoma, in the assay with MALME-3M melanoma and in the assay on MDA-N was over 100 µM in each case. For the same compound, the TGI in the assay with NCI-H23 lung, in the assay with NCI/ADR-RES ovarian, in the assay on OVCAR-3 ovarian, with PC-3 prostate, in the assay on RPMI-8226 leukemia and with RXF 393 renal was over 100 µM in each case. Besides, the TGI in the assay on SF-268 CNS, in the assay on SF-539 CNS, in the assay with SK-MEL-2 melanoma, in the assay with TK-10 renal, in the assay with U251 CNS and in the assay on UO-31 renal was over 100 µM in each case.
For the compound `CCOP(=O)(/C=C/n1cnc2c(=O)n(C(C)=O)c(N)nc21)OCC`, the TGI in the assay with COLO 205 colon, with HOP-62 NSCLC, with HS 578T breast, with LOX IMVI melanoma, with MDA-N and in the assay with NCI-H23 lung was over 100 µM throughout. The TGI in the assay on NCI/ADR-RES ovarian, in the assay with OVCAR-3 ovarian, in the assay with PC-3 prostate, with RPMI-8226 leukemia, with RXF 393 renal and in the assay on SF-268 CNS was over 100 µM each time. The TGI in the assay with SF-539 CNS, in the assay with SK-MEL-2 melanoma, with TK-10 renal and with U251 CNS was over 100 µM in each case.
Take `CC1=C2CC(C)(C)CC(=O)C2(C)CCC1=O` (centres undefined): the TGI in the assay on COLO 205 colon, in the assay on HOP-62 NSCLC, in the assay with HS 578T breast, in the assay with LOX IMVI melanoma, in the assay on MALME-3M melanoma and with MDA-N was over 100 µM throughout. The TGI in the assay with NCI-H23 lung is over 100 µM; in the assay with NCI/ADR-RES ovarian, over 100 µM; in the assay on PC-3 prostate it was over 100 µM; with RPMI-8226 leukemia it was 13.8 µM; in the assay with SF-268 CNS, over 100 µM; in the assay with SF-539 CNS, over 100 µM. Besides, the TGI in the assay on SK-MEL-2 melanoma, in the assay with TK-10 renal, in the assay with U251 CNS and in the assay with UO-31 renal was over 100 µM each time.
Consider `CSC1(Cc2ccccn2)C(=O)Nc2cccc([N+](=O)[O-])c21` (centres undefined), for which the TGI in the assay on COLO 205 colon, in the assay with HOP-62 NSCLC, with HOP-92 NSCLC, in the assay on HS 578T breast, with LOX IMVI melanoma and in the assay on MALME-3M melanoma was over 100 µM each time. Further, the TGI in the assay with MDA-N, in the assay with NCI-H23 lung, in the assay on NCI/ADR-RES ovarian, with OVCAR-3 ovarian, with PC-3 prostate and with RPMI-8226 leukemia was over 100 µM each time. The TGI in the assay on SF-268 CNS, in the assay on SF-539 CNS, with SK-MEL-2 melanoma, with TK-10 renal, in the assay on U251 CNS and with UO-31 renal was over 100 µM in each case.
Consider `O=C(/C=C/c1cccs1)c1ccc([N+](=O)[O-])cc1`, for which the TGI with COLO 205 colon, in the assay with HOP-62 NSCLC, in the assay with HS 578T breast, in the assay with LOX IMVI melanoma, in the assay with MALME-3M melanoma and in the assay on MDA-N was over 100 µM in each case. Besides, the TGI in the assay with NCI-H23 lung, in the assay on NCI/ADR-RES ovarian, with PC-3 prostate, with RPMI-8226 leukemia, in the assay with SF-268 CNS and with SF-539 CNS was over 100 µM in each case. For the same compound, the TGI in the assay on SK-MEL-2 melanoma, with TK-10 renal, with U251 CNS and in the assay on UO-31 renal was over 100 µM each time.
